Measured values published in US20150119422A1, “SIMETHICONE FORMULATION” (DISPHAR INTERNATIONAL B.V., priority 2011, published 2015).
Where a name gives a salt, the structure may show the parent alone.

Assay type: physicochemical
Details: pH range of 1 to 7
Protocol: Dissolution studies for determining release of the active ingredient at various pHs were carried out using a TDT-08 L dissolution apparatus from Electrolab®.
The above-mentioned tablets were studied for release profile, at 30 minutes, in solutions of varied pH such as 1.2, 4.5 and 6.8 respectively in aqueous solutions of 0.1 N HCl, acetate buffer and phosphate buffer.

CN(C)C(=O)C(CCN1CCC(O)(c2ccc(Cl)cc2)CC1)(c1ccccc1)c1ccccc1 [loperamide hydrochloride]
pH dependence of release / dissolution: pH dependent dissolution characteristics
